Test results taken from patent US12605360B2, “Compositions and methods using xanthan gum to stabilize at least one urolithin in an aqueous matrix” (SOCIETE DES PRODUITS NESTLE S.A., priority 2020, dated 2026).

Tests used:
[1] = Solubility of Urolithin A; assay type: physicochemical
From the text: The present disclosure addresses the inventors' recognition that Urolithin A (UA) is insoluble in water, such that a powder containing UA as the main functional ingredient presented the challenge of keeping UA in suspension upon reconstitution of the powder with water. In this regard, UA being insoluble promotes settling of UA at the bottom of the reconstitution container almost immediately. The present disclosure includes various ways of stabilizing Urolithin A in an aqueous matrix, such that when a powder containing UA is reconstituted, the UA remains in suspension.
Comparative experimental data was generated to investigate the possibility of stabilization of UA in an aqueous matrix.

[2] = Suspension of Urolithin A upon reconstitution of powder in water; assay type: physicochemical
Protocol: • 1. Initially the base selected was brown rice syrup powder to which UA was added. […] UA forms a suspension in oil, so another experiment used brown rice syrup powder with canola oil powder and whey protein.
Specifically, different gums and concentrations of gums were investigated with UA and a filler that was brown rice syrup powder: • 1. Guar gum • 2. PHGG • 3. Combination of guar and xanthan • 4. Acacia gum • 5. Gellan gum • 6. FMC Gum blend • 7. Xanthan gum
Table 1 (below) sets forth the formulations of the samples testing various gums with UA. FIGS. 3A and 3B set forth the results from these samples.
Some embodiments of the compositions disclosed herein include fruit flavor and thus citric acid. […] Table 2 (below) sets forth the formulations of the samples testing various gums with UA and citric acid. FIGS. 4A and 4B sets forth the results from these samples.
For each sample, after mixing the powder with water, five minutes elapsed, then the suspension was mixed again, and then viscosity was measured. Out of the various experiments, xanthan gum provided the best solution of not only keeping UA in suspension but also the desired viscosity, easily dissolved, and no off taste/odor to the product.
A range of xanthan gum amounts were then studied (Table 3 and FIG. 5). […]

solubility in oil ([1]; oil): sparingly soluble | solubility in water ([1]; water): insoluble | suspension of UA in an oil matrix [2]: forms a good suspension
Compound: O=c1oc2cc(O)ccc2c2ccc(O)cc12 [Urolithin A]
